Data taken from paper PMC10671431, “New Derivatives of N-Hydroxybutanamide: Preparation, MMP Inhibition, Cytotoxicity, and Antitumor Activity” (International Journal of Molecular Sciences, 2023).

What was measured:
MMP-14 = molecular target: T1, MMP-14 (Homo sapiens, UniProt P50281); assay: MMP activity assay, fluorogenic substrate (MMP Inhibitor Profiling Kit); format: biochemical; conditions: read-out: MMP-inhibiting activity IC50, MMP-14
T1 construct: the BML- prefix points to Enzo Life Sciences, own knowledge BML-AK308
Procedure: (§1) Determination of MMP activity. A fluorescently labeled substrate probe containing a fluorescent label and a fluorescence quencher, was utilized for this study. […] Enzyme activity was assessed using the MMP Inhibitor Profiling Kit (Product # BML-AK308, New York, NY, USA) according to the manufacturer’s recommendations. The nonspecific inhibitor NNGH was used as a positive control. The fluorescence of the fluorogenic substrate OmniMMP^TM RED was measured at wavelengths Ex/Em = 545/576 nm using a Spark 10M multimode plate reader (Tecan, Zurich, Switzerland). Reaction rates were expressed in relative fluorescence units (RFUs) per minute. The activity of MMPs in the presence of the studied compounds was determined as follows:Activity, % = (Vinh/Vcont) × 100,(1) where V is the initial reaction rate (RFUs/min) in the presence (Vinh) and absence (Vcont) of the studied compounds.
(§2) All tested compounds were dissolved in DMSO. The final concentration of DMSO in all samples was 0.1%. Control samples were treated with 0.1% DMSO.

MMP-2 = molecular target: T2, MMP-2 (Homo sapiens, UniProt P08253); assay: as above; format: biochemical; conditions: read-out: MMP-inhibiting activity IC50, MMP-2
T2 construct: the BML- prefix points to Enzo Life Sciences, own knowledge BML-AK308
T2 sequence (P08253 110-446 limits assumed): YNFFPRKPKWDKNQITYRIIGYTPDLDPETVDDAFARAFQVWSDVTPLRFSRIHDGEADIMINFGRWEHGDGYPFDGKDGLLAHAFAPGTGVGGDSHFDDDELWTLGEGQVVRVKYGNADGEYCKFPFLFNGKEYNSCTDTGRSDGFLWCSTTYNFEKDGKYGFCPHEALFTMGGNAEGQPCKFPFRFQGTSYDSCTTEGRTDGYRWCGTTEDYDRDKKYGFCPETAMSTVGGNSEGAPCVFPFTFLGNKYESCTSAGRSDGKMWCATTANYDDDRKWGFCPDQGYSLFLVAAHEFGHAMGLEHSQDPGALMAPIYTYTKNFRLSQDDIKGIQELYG
Procedure: as §1, §2

MMP-3 = molecular target: T3, MMP-3 (Homo sapiens, UniProt P08254); assay: as above; format: biochemical; conditions: read-out: MMP-inhibiting activity IC50, MMP-3
T3 construct: the BML- prefix points to Enzo Life Sciences, own knowledge BML-AK308
T3 sequence (P08254 100-272 limits assumed): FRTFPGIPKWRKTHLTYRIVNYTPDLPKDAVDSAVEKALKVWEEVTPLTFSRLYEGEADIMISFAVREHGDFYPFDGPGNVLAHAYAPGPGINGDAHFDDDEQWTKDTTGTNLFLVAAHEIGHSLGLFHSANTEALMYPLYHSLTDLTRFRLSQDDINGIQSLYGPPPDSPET
Procedure: as §1, §2

MMP-9 = molecular target: T4, MMP-9 (Homo sapiens, UniProt P14780); assay: as above; format: biochemical; conditions: read-out: MMP-inhibiting activity IC50, MMP-9
T4 construct: the BML- prefix points to Enzo Life Sciences, own knowledge BML-AK308
T4 sequence (P14780 107-444 limits assumed): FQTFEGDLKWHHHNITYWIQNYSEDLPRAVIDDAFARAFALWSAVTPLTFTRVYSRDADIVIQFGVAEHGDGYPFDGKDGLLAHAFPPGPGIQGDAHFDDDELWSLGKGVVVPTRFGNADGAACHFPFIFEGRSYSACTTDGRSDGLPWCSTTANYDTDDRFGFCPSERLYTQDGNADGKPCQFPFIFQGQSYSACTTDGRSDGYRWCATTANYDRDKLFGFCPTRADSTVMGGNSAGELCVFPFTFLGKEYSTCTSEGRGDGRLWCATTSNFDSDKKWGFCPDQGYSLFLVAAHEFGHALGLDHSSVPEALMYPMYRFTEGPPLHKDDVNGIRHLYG
Procedure: as §1, §2

U-251 MG = assay: Cytotoxicity, MTT test; format: cell-based; conditions: Homo sapiens, 72 h of exposure
Procedure: (§3) Cell culture. A-172 (human glioblastoma cells), HepG2 (human hepatocellular carcinoma cells), M-HeLa (human cervical adenocarcinoma cells, M subclone), Vero (African green monkey kidney epithelial cells), and FetMSC (human embryonic mesenchymal stem cells) were purchased from the Russian Collection of Cell Cultures of Vertebrates (Institute of Cytology RAS, St. Petersburg, Russia). The U-251 MG cell line (human glioblastoma-astrocytoma) was purchased from the European Collection of Authenticated Cell Cultures (Salisbury, UK). All cells were grown at 37 °C in an atmosphere of 5% CO2. A-172 and Vero cells were cultured in DMEM medium (PanEco, Moscow, Russia). HepG2, HeLa, and U-251 MG cells were cultured in EMEM medium (PanEco). FetMSC cells were cultured in F12/DMEM medium (PanEco). All incubation media were supplemented with 10% fetal calf serum (BioWest, Nuaillé, France), 50 U/mL penicillin, and […] streptomycin (PanEco). Additionally, media for HeLa, HepG2, and U-251 MG cells were supplemented with 2 mM glutamine (PanEco) and 1% essential amino acids (PanEco), media for A-172 and Vero cells were supplemented with 4 mM glutamine, and the medium for FetMSC cells was supplemented with 3 mM glutamine. The medium for U-251 MG cells was additionally supplemented with 1 mM sodium pyruvate (PanEco).
(§4) Cytotoxicity studies. The cytotoxicity of the compounds was assessed using the MTT test. Cells were seeded into 96-well plates at varying concentrations of 5 × 10^4 cells/mL (A-172, Vero and HeLa), 7 × 10^4 cells/mL (HepG2 and U-251 MG), and 10 × 10^4 cells/mL (FetMSC). The studied compounds were added to the incubation medium 24 h after seeding at concentrations ranging from 7.8 μM to 500 μM. All compounds were dissolved in DMSO and diluted with the incubation medium to their final concentrations just before use. The incubation medium in wells was aspirated and replaced with medium containing the studied compounds. The final concentration of DMSO in all samples was 0.1%. Control samples were treated with 0.1% DMSO. After 72 h of exposure, 3-(4,5-dimethylthiazol-2-yl)-2,5-diphenyl-2H-tetrazolium bromide (MTT) (Dia-M, Moscow, Russia) was added to the incubation medium at a concentration of 0.5 mg/mL. The resulting MTT-formazan crystals were dissolved in DMSO. The optical density was measured at 570 nm with a background wavelength of 620 nm using a Spark 10M plate reader. IC50 values were determined using a median effect analysis from the dose–effect relationships.

A-172 = assay: Cytotoxicity, MTT test; format: cell-based, human; conditions: Homo sapiens, A 172, 72 h of exposure
Procedure: as §3, §4

FetMSC = assay: Cytotoxicity, MTT test; format: cell-based, human; conditions: Homo sapiens; 72 h of exposure, MTT
Procedure: as §3, §4

HeLa = assay: Cytotoxicity, MTT test; format: cell-based, human; conditions: Homo sapiens, HeLa, 72 h of exposure
Procedure: as §3, §4

HepG2 = assay: Cytotoxicity, MTT test; format: cell-based, human; conditions: Homo sapiens, HepG2, 72 h of exposure
Procedure: as §3, §4

Vero = assay: Cytotoxicity, MTT test; format: cell-based, African green monkey; conditions: Chlorocebus sabaeus, Vero, 72 h of exposure
Procedure: as §3, §4

[1] = Cytotoxicity, MTT test, statements on all cell lines studied; format: cell-based; conditions: human, African green monkey, 72 h of exposure, summary over cell lines, read-out: cytotoxicity IC50, cells in general
Procedure: as §3, §4

B16 melanoma [2] = assay: Antitumor activity in vivo, tumor growth; parameters: species or system mouse; conditions: BDF1 mice, i.p., CP 100 mg/kg days 2, 7, cPt 4 mg/kg days 2–9, 4 300 mg/kg days 2–9
Procedure: (§5) Antitumor activity in vivo. The B16 mouse melanoma was used as a tumor model. The B16 melanoma tumor strain was induced in male BDF1 mice by subcutaneous inoculation of 0.2–0.5 mL of a suspension of tumor tissue in medium 199 at intervals of 12–16 days. For the experiments, BDF1 mice were inoculated with 0.3 mL of a suspension of tumor tissue diluted in a 0.9% NaCl solution at a ratio of 1:5 subcutaneously on the right side.
(§6) Compound 4 was dissolved in a 0.9% NaCl solution with 1% DMSO. […] Control animals were injected intraperitoneally with 1% DMSO in saline (0.9% NaCl) in the same volumes as the test compounds.
Tumor growth was monitored on days 0, 6, 8, 10, 13, 15, 17, and 20 by measuring the tumor size with a digital caliper. The mean tumor diameter was calculated using the formula:D = 3√a × b × c,(2) where a, b, and c are mutually perpendicular tumor diameters.

B16 melanoma [3] = assay: Antimetastatic activity in vivo, lung metastases; parameters: species or system mouse; conditions: lungs, B16 melanoma, BDF1 mice, doses as in Table 5
Procedure: as §5, §6
And MNMcont. are the mean number of metastases in the experimental and control groups, respectively.

[4] = tested on: pancreatic carcinoma cells CD18; parameters: method as in PMID 24022491; conditions: 5 μM, 24 h of exposure; cited from earlier work
[5] = tested on: pancreatic carcinoma cells MiaPaCa2; parameters: method as in PMID 24022491; conditions: 5 μM, 24 h of exposure; cited from earlier work
gelatinase A (MMP-2) = molecular target: gelatinase A (MMP-2); parameters: method as in earlier work; conditions: read-out: IC50 for gelatinase A (MMP-2) inhibition; cited from earlier work
human glioma U-251 cells = tested on: human glioma U-251 cells; parameters: method as in PMID 10048980; conditions: 10 μM, 96 h of exposure; cited from earlier work
[6] = tested on: human histiocytic lymphoma cells U-937; parameters: method as in doi:10.17265/1934-7375/2015.06.002; conditions: 72 h of exposure, cited from earlier work
[7] = tested on: human hepatocellular carcinoma cells HepG2; parameters: method as in doi:10.17265/1934-7375/2015.06.002; conditions: 72 h of exposure, cited from earlier work
[8] = tested on: mouse breast carcinoma cells 4T1; parameters: method as in PMID 31637006; conditions: concentrations up to 50 μg/mL (150.87 μM), 48 h of exposure; cited from earlier work
[9] = tested on: human breast carcinoma cells MDA-MB-435; parameters: method as in PMID 31637006; conditions: concentrations up to 50 μg/mL (150.87 μM), 48 h of exposure; cited from earlier work
[10] = tested on: hamster peritoneal macrophages; conditions: 72 h of exposure; cited from earlier work

Structure (SMILES): COc1ccccc1C(=O)NNC(=O)CCC(=O)NO [Compound 5, N-hydroxy-4-[2-(2-methoxybenzoyl)hydrazinyl]-4-oxobutanamide]
- IC50 (MMP-14): > 10 µM
- IC50 (MMP-2): > 10 µM
- IC50 (MMP-3): > 10 µM
- IC50 (MMP-9): > 10 µM
- IC50 (U-251 MG): > 500 µM
- IC50 (A-172): > 500 µM
- IC50 (FetMSC): > 500 µM
- IC50 (HeLa): 194 ± 13.4 µM
- IC50 (HepG2): 221 ± 12.6 µM
- IC50 (Vero): > 500 µM
- IC50 at 72 h [1]: > 100 µM

Structure (SMILES): O=C(CCC(=O)NNC(=O)c1ccc([N+](=O)[O-])cc1)NO [Compound 3, N-hydroxy-4-[2-(4-nitrobenzoyl)hydrazinyl]-4-oxobutanamide]
- IC50 (MMP-14): > 10 µM
- IC50 (MMP-2): > 10 µM
- IC50 (MMP-3): > 10 µM
- IC50 (MMP-9): > 10 µM
- IC50 (U-251 MG): > 500 µM
- IC50 (A-172): > 500 µM
- IC50 (FetMSC): > 500 µM
- IC50 (HeLa): 237 ± 14.2 µM
- IC50 (HepG2): 252 ± 15.8 µM
- IC50 (Vero): > 500 µM
- IC50 at 72 h [1]: > 100 µM

Structure (SMILES): O=P1(N(CCCl)CCCl)NCCCO1 (stereo not drawn) [CP, cyclophosphamide]
- Tumor Growth Inhibition, % Day 10 (B16 melanoma [2]): 52.94%
- Tumor Growth Inhibition, % Day 13 (B16 melanoma [2]): 38.10%
- Tumor Growth Inhibition, % Day 15 (B16 melanoma [2]): 43.20%
- Tumor Growth Inhibition, % Day 17 (B16 melanoma [2]): 27.43%
- Tumor Growth Inhibition, % Day 20 (B16 melanoma [2]): 14.02%
- % Inhibition of Metastases (B16 melanoma [3]): 39.3%
- Mean Number of Metastases per Mouse (B16 melanoma [3]): 7.1 ± 2.2
- Metastasis Rate, % (B16 melanoma [3]): 100%
- Number of Animals without Metastases (B16 melanoma [3]; of 6 animals in the group): 0

Structure (SMILES): CNC(=O)[C@@H](NC(=O)[C@H](CCCc1ccccc1)[C@H](C)N(O)C=O)C(C)(C)C [GI254023X]
- toxicity to cells [4]: toxic
- toxicity to cells [5]: toxic

Structure (SMILES): C=C[C@H]1C[C@@H](C)C[C@@H](C)[C@@H]1c1c(O)ccn(O)c1=O [pyridoxatin]
- IC50 (gelatinase A (MMP-2)): 15.2 µM

Structure (SMILES): CNC(=O)[C@@H](NC(=O)[C@H](CC(C)C)[C@H](O)C(=O)NO)C(C)(C)C [Marimastat]
- reduction in cell viability (human glioma U-251 cells): 20–40%
- cytotoxicity IC50 [6]: 10.8 µg/mL
- IC50 ([6]; read-out: cytotoxicity IC50): 32.6 µM
- cytotoxicity IC50 [7]: higher than 200 μg/mL
- IC50 ([7]; read-out: cytotoxicity IC50): > 603 µM
- effect on cells [8]: no effect
- effect on cells [9]: no effect
- cytotoxicity IC50 [10]: higher than 200 μg/mL
